The record followed here is patent publication US12319655B2, “RAF kinase inhibitors and methods of use thereof” (Deciphera Pharmaceuticals, LLC, priority 2021, dated 2025).

Test [1] deals with A-Raf kinase (SEQ. ID No: 1) (Homo sapiens (Human), UniProt P10398, Y301D/Y302D). The test is described as follows: Biochemical Assay for A-Raf (1). As to conditions: Table J, assay version (1); read-out: ARAF (1) IC50. Here is the method:
Biochemical Assay for A-Raf (1)
(§1) Activity of A-Raf kinase (SEQ. ID No: 1) was determined spectroscopically using a coupled pyruvate kinase/lactate dehydrogenase assay that continuously monitors the ATP hydrolysis-dependent oxidation of NADH (e.g., Schindler et al., Science, 2000, 289, 1938-1942). Assays were conducted in 384-well plates (100 μL final volume) using 5.55 nM A-Raf (Sigma), 1.5 units pyruvate kinase, 2.1 units lactate dehydrogenase, 1 mM phosphoenol pyruvate, 0.28 mM NADH, 30.1 nM MEK (SignalChem), and 1 mM ATP in assay buffer (100 mM Tris, pH 7.5, 15 mM MgCl2, 0.5 mM DTT, 0.1% octyl-glucoside, 0.002% (w/v) BSA, and 0.002% Triton X-100). Inhibition of A-Raf was measured by adding serial diluted test compound (final assay concentration of 1% DMSO). A decrease in absorption at 340 nm was monitored continuously for 6 h at 30° C. on a multi-mode microplate reader (BioTek). The reaction rate was calculated using the 4 to 5 h time frame. The reaction rate at each concentration of compound was converted to percent inhibition using controls (i.e., reaction with no test compound and reaction with a known inhibitor) and IC50 values were calculated by fitting a four-parameter sigmoidal curve to the data using Prism (GraphPad software).

Test [2] deals with B-Raf kinase (SEQ. ID NO: 2) (Homo sapiens (Human), UniProt P15056). Briefly: Biochemical Assay for B-Raf (1). As to conditions: Table J, assay version (1); read-out: BRAF (1) IC50. The protocol:
Biochemical Assay for B-Raf (1)
as §1, with “B-Raf” for “A-Raf”, “NO: 2)” for “No: 1)”, “0.13” for “5.55”, “Ph” for “pH”

Test [3] deals with C-Raf kinase (SEQ. ID NO: 3) (Homo sapiens (Human), UniProt P04049, Y340D/Y341D). The test is described as follows: Biochemical Assay for C-Raf (1). As to conditions: Table J, assay version (1); read-out: CRAF (1) IC50. The protocol:
Biochemical Assay for C-Raf (1)
as §1, with “C-Raf” for “A-Raf”, “NO: 3)” for “No: 1)”, “0.43” for “5.55”, “Ph” for “pH”

Test [4] deals with B-Raf (V600E) (SEQ. ID NO: 4) kinase (Homo sapiens (Human), UniProt P15056, V600E). The test is described as follows: Biochemical Assay for B-Raf (V600E) (1). As to conditions: Table J, BRAF V600E, assay version (1); read-out: BRAF VE (1) IC50. The protocol:
Biochemical Assay for B-Raf (V600E) (1)
Activity of B-Raf (V600E) (SEQ. ID NO: 4) kinase was determined spectroscopically using a coupled pyruvate kinase/lactate dehydrogenase assay that continuously monitors the ATP hydrolysis-dependent oxidation of NADH (e.g., Schindler et al., Science, 2000, 289, 1938-1942). Assays were conducted in 384-well plates (100 μL final volume) using 0.03 nM B-Raf (SignalChem), 1.5 units pyruvate kinase, 2.1 units lactate dehydrogenase, 1 mM phosphoenol pyruvate, 0.28 mM NADH, 30.1 nM MEK (SignalChem), and 1 mM ATP in assay buffer (100 mM Tris, Ph 7.5, 15 mM MgCl2, 0.5 mM DTT, 0.1% octyl-glucoside, 0.002% (w/v) BSA, and 0.002% Triton X-100). Inhibition of B-Raf (V600E) was measured by adding serial diluted test compound (final assay concentration of 1% DMSO). A decrease in absorption at 340 nm was monitored continuously for 6 h at 30° C. on a multi-mode microplate reader (BioTek). The reaction rate was calculated using the 3 to 4 h time frame. The reaction rate at each concentration of compound was converted to percent inhibition using controls (i.e., reaction with no test compound and reaction with a known inhibitor) and IC50 values were calculated by fitting a four-parameter sigmoidal curve to the data using Prism (GraphPad software).

What is called IC50 is the concentration at which inhibition is half-maximal.

B-Raf (V600E) (SEQ. ID NO: 4) kinase, sequence (P15056 416-766 V600E): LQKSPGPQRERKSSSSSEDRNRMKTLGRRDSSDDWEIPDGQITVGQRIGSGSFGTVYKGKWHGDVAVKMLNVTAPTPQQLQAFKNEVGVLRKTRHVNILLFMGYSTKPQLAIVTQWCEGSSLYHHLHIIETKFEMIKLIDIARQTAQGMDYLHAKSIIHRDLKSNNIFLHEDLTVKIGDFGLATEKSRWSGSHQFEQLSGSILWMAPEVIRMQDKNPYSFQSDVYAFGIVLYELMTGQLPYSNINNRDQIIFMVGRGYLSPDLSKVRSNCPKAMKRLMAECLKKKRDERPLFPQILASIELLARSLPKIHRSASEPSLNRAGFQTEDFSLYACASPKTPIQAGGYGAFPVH
A-Raf kinase (SEQ. ID No: 1), sequence (P10398 other isoform, or with tags, fused parts or gaps Y301D (already in the parent)/Y302D (already in the parent)): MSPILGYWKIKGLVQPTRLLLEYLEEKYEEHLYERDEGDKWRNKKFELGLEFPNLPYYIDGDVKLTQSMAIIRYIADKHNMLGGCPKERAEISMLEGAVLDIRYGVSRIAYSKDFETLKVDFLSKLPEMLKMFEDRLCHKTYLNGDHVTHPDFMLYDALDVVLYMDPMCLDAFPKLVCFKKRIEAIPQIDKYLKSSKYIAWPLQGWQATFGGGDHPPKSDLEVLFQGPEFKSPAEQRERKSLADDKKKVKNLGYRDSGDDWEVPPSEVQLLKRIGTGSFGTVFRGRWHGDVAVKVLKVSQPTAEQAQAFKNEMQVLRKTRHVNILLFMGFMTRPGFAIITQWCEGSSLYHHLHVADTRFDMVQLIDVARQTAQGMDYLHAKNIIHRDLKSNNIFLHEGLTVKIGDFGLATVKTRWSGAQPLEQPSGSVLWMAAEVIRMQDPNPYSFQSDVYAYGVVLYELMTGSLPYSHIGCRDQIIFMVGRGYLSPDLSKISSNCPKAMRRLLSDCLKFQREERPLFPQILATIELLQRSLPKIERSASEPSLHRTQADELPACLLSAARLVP
B-Raf kinase (SEQ. ID NO: 2), sequence (P15056 416-766): as the sequence (P15056 416-766 V600E) above, with E185V counted along it
C-Raf kinase (SEQ. ID NO: 3), sequence (P04049 307-648 Y340D/Y341D): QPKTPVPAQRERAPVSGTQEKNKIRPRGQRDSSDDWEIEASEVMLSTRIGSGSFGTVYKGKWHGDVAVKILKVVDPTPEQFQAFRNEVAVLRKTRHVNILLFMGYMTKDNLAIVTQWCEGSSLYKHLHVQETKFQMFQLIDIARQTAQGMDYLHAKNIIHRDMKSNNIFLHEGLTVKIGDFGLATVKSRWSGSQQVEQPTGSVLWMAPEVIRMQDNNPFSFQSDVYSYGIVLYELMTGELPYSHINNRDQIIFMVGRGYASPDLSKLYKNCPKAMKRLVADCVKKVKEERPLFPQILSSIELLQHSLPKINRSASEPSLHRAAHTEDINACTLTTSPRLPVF

As to `CC(=O)Nc1cc(-c2cc(-c3cc(NC(=O)c4ccnc(C(F)(F)F)c4)ccc3C)cc(C(C)(C)O)n2)ccn1` [Example 33], the IC50 in test [1] was 1 to 10 µM; in test [2], 1 to 10 µM; in test [3], 0.1 to 0.5 µM; in test [4], at most 0.1 µM.
`CC(=O)Nc1cc(-c2cc(-c3cc(NC(=O)c4ccnc(C(F)(F)F)c4)ccc3C)nn(C)c2=O)ccn1` [Example 34]: the IC50 in test [1], in test [2], in test [3] and in test [4] was 1 to 10 µM in each case.
For the compound `CNC(=O)c1cc(-c2cc(-c3cc(NC(=O)c4ccnc(C(F)(F)F)c4)ccc3C)nn(C)c2=O)ccn1` [Example 51], the IC50 in test [1], in test [2], in test [3] and in test [4] was 1 to 10 µM throughout.
Take `CNC(=O)c1cc(-c2cc(-c3cc(NC(=O)c4ccnc(C(F)(F)F)c4)ccc3C)cc(=O)n2C)ccn1` [Example 67]: the IC50 is 1 to 10 µM in test [1], 1 to 10 µM in test [2], 0.5 to 1 µM in test [3] and at most 0.1 µM in test [4].
As to `Cc1ncc(NC(=O)c2ccnc(C(C)(C)C#N)c2)cc1-c1nccc(-c2ccnc3c2CC(=O)N3)n1` [Example 93], the IC50 is 1 to 10 µM in test [1], 1 to 10 µM in test [2], 0.5 to 1 µM in test [3] and 0.1 to 0.5 µM in test [4].
Regarding `CNC(=O)c1cc(-c2cc(-c3cc(NC(=O)c4ccnc(C(F)F)c4)c(F)cc3C)cc(=O)n2C)ccn1` [Example 115], the IC50 lay within 1 to 10 µM in test [1], 1 to 10 µM in test [2], 1 to 10 µM in test [3] and 0.1 to 0.5 µM in test [4].
`COCCNc1cc(-c2cncc(-c3cc(NC(=O)c4ccnc(C(F)(F)F)c4)ccc3C)n2)ccn1` [Example 119]: the IC50 in test [1] was 1 to 10 µM; in test [2], 0.1 to 0.5 µM; in test [3], 0.1 to 0.5 µM; in test [4], at most 0.1 µM.
`CNC(=O)c1cc(-c2cc(-c3cc(NC(=O)c4cc(C(F)(F)F)ccn4)ccc3C)ccn2)ccn1` [Example 126]: the IC50 in test [1] was 1 to 10 µM; in test [2], 0.1 to 0.5 µM; in test [3], at most 0.1 µM; in test [4], at most 0.1 µM.
For the compound `COCC(=O)Nc1cc(-c2nccc(-c3cc(NC(=O)c4ccnc(C(F)(F)F)c4)ccc3C)n2)ccn1` [Example 137], the IC50 in test [1] is 1 to 10 µM; in test [2], at most 0.1 µM; in test [3], at most 0.1 µM; in test [4], at most 0.1 µM.
In the case of `CNC(=O)c1cc(-c2cncc(-c3cc(NC(=O)c4cc(C(F)(F)F)cc(CN(C)C)n4)ccc3C)n2)ccn1` [Example 147], the IC50 was 1 to 10 µM in test [1], 0.5 to 1 µM in test [2], 0.1 to 0.5 µM in test [3] and at most 0.1 µM in test [4].
The matching figures for `Cc1ccc(NC(=O)c2cc(C(F)(F)F)ccn2)cc1-c1cncc(-c2ccnc(NC(=O)C3CC3)c2)n1` [Example 167]: 1 to 10 µM, at most 0.1 µM, at most 0.1 µM and at most 0.1 µM.
Turning to `CNC(=O)c1cc(-c2cncc(-c3cc(NC(=O)c4ccnc(C(C)(C)C#N)c4)c(F)cc3C)n2)ccn1` [Example 170], the IC50 is 1 to 10 µM in test [1], 0.1 to 0.5 µM in test [2], 0.1 to 0.5 µM in test [3] and at most 0.1 µM in test [4].
For `Cc1ccc(NC(=O)c2ccnc(C3(C#N)CC3)c2)cc1-c1cncc(-c2ccnc(NC(=O)C3CC3)c2)n1` [Example 183], the IC50 in test [1] is 0.1 to 0.5 µM; in test [2] it was at most 0.1 µM; in test [3], at most 0.1 µM; in test [4] it was at most 0.1 µM.
As for `Cc1ccc(NC(=O)c2cc(C(F)(F)F)ccn2)cc1-c1ccnc(-c2ccnc(NC(=O)C3CC3)c2)n1` [Example 188], the IC50 in test [1] is 1 to 10 µM; in test [2], at most 0.1 µM; in test [3], at most 0.1 µM; in test [4] it was at most 0.1 µM.
As to `Cc1ccc(NC(=O)c2ccnc(C(C)(C)C#N)c2)cc1-c1ccnc(-c2ccnc(NC(=O)C(C)(C)C)c2)c1` [Example 206], the IC50 in test [1] was 1 to 10 µM; in test [2] it was 0.1 to 0.5 µM; in test [3] it was 0.1 to 0.5 µM; in test [4], at most 0.1 µM.
Turning to `COC(C)(C)C(=O)Nc1cc(-c2cccc(-c3cc(NC(=O)c4ccnc(C(C)(C)C#N)c4)cnc3C)c2)ncn1` [Example 208], the IC50 in test [1] lay in the range of 1 to 10 µM; in test [2], 1 to 10 µM; in test [3] it was 0.5 to 1 µM; in test [4] it was 0.1 to 0.5 µM.
For `COC(C)(C)C(=O)Nc1cc(-c2cc(-c3cc(NC(=O)c4ccnc(C(C)(C)C#N)c4)cnc3C)ccn2)ccn1` [Example 209], the IC50 lay within 1 to 10 µM in test [1], 1 to 10 µM in test [2], 0.5 to 1 µM in test [3] and 0.1 to 0.5 µM in test [4].
`COC(C)(C)C(=O)Nc1cc(-c2cccc(-c3cc(NC(=O)c4ccnc(C(C)(C)C#N)c4)ccc3C)c2)ncn1` [Example 211]: the IC50 in test [1] was 1 to 10 µM; in test [2], 0.5 to 1 µM; in test [3] it was 0.5 to 1 µM; in test [4], at most 0.1 µM.
As to `Cc1ncc(NC(=O)c2ccnc(C(C)(C)C#N)c2)cc1-c1ccnc(-c2ccnc(NC(=O)C(C)(C)C)c2)c1` [Example 228], the IC50 in test [1] was 1 to 10 µM; in test [2] it was 0.1 to 0.5 µM; in test [3], 0.1 to 0.5 µM; in test [4] it was at most 0.1 µM.
Consider `Cc1ccc(NC(=O)c2ccnc(C(C)(C)F)c2)cc1-c1nccc(-c2ccnc(NC(=O)C3CC3)c2)n1` [Example 232], for which the IC50 in test [1] was 0.1 to 0.5 µM; in test [2], at most 0.1 µM; in test [3], at most 0.1 µM; in test [4] it was at most 0.1 µM.
On to `CNC(=O)c1cc(-c2cccc(-c3cc(NC(=O)c4ccnc(C(C)(C)C#N)c4)ccc3C)n2)ccn1` [Example 234], for which the 50% inhibitory concentration (IC50) in test [1] is 1 to 10 µM; in test [2], at most 0.1 µM; in test [3], at most 0.1 µM; in test [4], at most 0.1 µM.
